Data taken from PubChem BioAssay (NCI).
Several values for one entry are separate records, joined by “and”; a condition that tells them apart may be missing. Equal entries are not always repeated.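 Exposure lasted 48 hours, with cells grown in 96-well plates and compounds tested at five concentrations. GI50 is the concentration that inhibits growth by half. TGI is the concentration that stops growth completely.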

Key:
Assay in all cases: NCI-60 cell line screen, 48 h
DLD-1 colon = system: DLD-1 colon
DMS 114 small cell lung = system: DMS 114 small cell lung
DMS 273 small cell lung = system: DMS 273 small cell lung
HOP-18 NSCLC = system: HOP-18 NSCLC
RXF-631 renal = system: RXF-631 renal
SNB-78 CNS = system: SNB-78 CNS
XF 498 CNS = system: XF 498 CNS
MCF7 breast = system: MCF7 breast
MDA-N = system: MDA-N

SMILES	TGI (DLD-1 colon) [µM]	TGI (DMS 273 small cell lung) [µM]	TGI (HOP-18 NSCLC) [µM]	TGI (SNB-78 CNS) [µM]	TGI (MCF7 breast)	GI50 (MCF7 breast) [µM]	other results
COc1cc(C(C)c2cc3c(cc2OCCOCCOc2cc4c(cc2C(C)c2cc(OC)c(OC)c(OC)c2)OCO4)OCO3)cc(OC)c1OC (stereo not drawn)	> 100	> 10	> 10	> 10			GI50 (DLD-1 colon): > 100 µM; GI50 (DMS 114 small cell lung): > 100 µM; TGI (DMS 114 small cell lung): > 100 µM; GI50 (RXF-631 renal): > 100 µM; TGI (RXF-631 renal): > 100 µM; TGI (XF 498 CNS): > 10 µM
[O-]c1c(-c2ccccc2)[se]c(-c2ccccc2)[n+]1-c1ccccc1	4.48	37.1	25.6	14			TGI (DMS 114 small cell lung): 18.7 µM; TGI (RXF-631 renal): 29.9 µM
S=C1SC2(CCCCCC2)NC2=C1CCCCC2					65 µM		TGI (MDA-N): > 100 µM
O=C(O/N=C1/CCC/C1=C\c1ccccc1)c1ccc(Cl)cc1	> 31.6	> 100	> 100	> 100			TGI (XF 498 CNS): > 100 µM
O=C1c2ccccc2C(=O)c2c1c(NCCNCCO)c1cc[nH]c1c2NCCNCCO						1.35	
Nc1nc(N)c2ncn(Cc3c(Cl)cccc3Cl)c2n1					> 100 µM		TGI (MDA-N): > 100 µM
CC(=O)OC1C(O)COC(Oc2c(C)c3c4c(c2O)[C@@H](C)CC[C@@H]4[C@@H](C)C[C@H]3C=C(C)C)C1O (stereo partly drawn)					> 100 µM	17.2	
C=C(C)[C@@H]1CC[C@]2(c3ncc(C)o3)CC[C@]3(C)[C@H](CC[C@@H]4[C@@](C)(CCC#N)[C@H](C(=C)C)CC[C@]43C)[C@@H]12					10.5 µM	2.87	
CCCCCn1ncc(-c2c(O)c(O)cc3c(O)c(-c4c(C)cc5c(-c6cnn(CCCCC)n6)c(O)c(O)cc5c4O)c(C)cc23)n1					4.24 µM	0.0874	
CP(=O)(CCSc1ccccc1)c1ccccc1 (stereo not drawn)	> 100	> 100	> 100	> 100			TGI (DMS 114 small cell lung): > 100 µM; TGI (XF 498 CNS): > 100 µM
CCc1nc2cc(/C=C/C(=O)NO)c(F)cc2c(=O)n1CCc1ccccc1					15.1 µM	0.407	
CCC(=O)[O-].CCC(=O)[O-].N.N.N.N.[Co+3].[O-][Cl+3]([O-])([O-])[O-]	> 100	> 100		> 100			GI50 (DLD-1 colon): > 100 µM; GI50 (DMS 273 small cell lung): > 100 µM; GI50 (SNB-78 CNS): > 100 µM
COc1ccc(-c2ccc(=O)oc2-c2cc(OC)c(OC)c(OC)c2)cc1O					> 100 µM	< 0.01	
COc1cc2c(cc1OCCN1C(=O)c3cccc4cccc(c34)C1=O)N=C[C@@H]1CCCN1C2=O					18.2 µM and > 100 µM	13.6	GI50 (MDA-N): 20.3 µM; TGI (MDA-N): 14.8 µM and 45.8 µM
CC(=O)[CH-]C(=O)c1ccccc1.CC(=O)[CH-]C(=O)c1ccccc1.[O-]c1ccc(O)cc1.[O-]c1ccc(O)cc1.[Ti+4]	37.6		72.2				GI50 (DLD-1 colon): 16.6 µM; GI50 (HOP-18 NSCLC): 27.1 µM
N#CC(C(=N/NC(N)=S)/C(=N\NC(N)=S)C(C#N)c1ccccc1)c1ccccc1 (stereo not drawn)	> 10	> 10	> 10	> 10			TGI (DMS 114 small cell lung): > 10 µM; TGI (RXF-631 renal): > 10 µM; TGI (XF 498 CNS): > 10 µM
